# Values quoted from earlier work in patent US20070071819A1, “MULTIPLE UNIT MODIFIED RELEASE COMPOSITIONS OF CARBAMAZEPINE AND PROCESS FOR THEIR PREPARATION” (priority 2005, published 2007).
# Conditions: below 4 μg/ml ineffective; greater than 12 μg/ml increased chances of side-effects
smiles,measurement,value
"NC(=O)N1c2ccccc2C=Cc2ccccc21 [carbamazepine, 5H-dibenz-[b,f]azepine-5-carboxamide]",therapeutic blood serum concentration range,4 to 12 µg/mL
